# How the values were obtained:
# [1] = test system: HCT116 (human colorectal cancer cell line); assay: MTT anti-proliferative assay, HCT116; format: cell-based; conditions: means ± SD, n = 3
# Procedure, shortened: (§1)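 Cells seeded at 1 × 10^4–1.2 × 10^4 per well were allowed to adhere 24 h, then exposed 48 h at 37 °C, 5% CO2 to compound at 1.25, 2.5, 5 and 10 μM (DMSO ≤0.1%). MCF-7 and HepG2 were grown in DMEM, HCT116 and BEL7402 in RPMI 1640, each with 10% FBS. MTT (final 2 mg/ml) was added for 4 h; formazan was dissolved in DMSO and read at 492 nm.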
# [2] = test system: HepG2 (human hepatocellular carcinoma cell line); assay: MTT anti-proliferative assay, HepG2; format: cell-based; conditions: means ± SD, n = 3
# Procedure, shortened: as §1
# [3] = test system: HCT116 cells; assay: Cell cycle analysis by flow cytometry; format: cell-based, human; conditions: HCT116, 30 μM, 24 h; control 53.9
# Protocol: Inoculate HCT116 cells in a 6-well plate (5.0 × 10^5 cells per well) and incubate at 37°C for 24 h. The exponentially growing cells were then incubated with compound E at 10 and 30 μM. After 24 h, untreated cells (control) or cells treated with compound E were centrifuged at 1,000 rpm for 15 min, and then fixed in 70% ethanol at […] for at least 24 h. The cells were then resuspended in phosphate buffered saline (PBS) containing 0.1 mg/ml RNase A and 5 mg/ml PI. The DNA content of cells used for cell cycle distribution analysis was measured by flow cytometry, and analyzed using FACSalibur flow cytometer and Cell Quest software (Becton-Dickinson, Franklin Lakes, NJ, United States).
# [4] = test system: HCT116 cells; assay: H&E staining of morphological changes; format: cell-based, human; conditions: HCT116, 2.5, 5, 10 μM, 24 h
# Protocol: Induction of apoptosis is the mechanism of action of many anti-proliferative drugs. When cells undergo apoptosis, they generally also undergo morphological changes ([Liu et al., 2009]). Therefore, we used H&E staining to assess morphological changes in the cells.
# FIGURE 5 Cell morphological alterations and nuclear changes associated with HCT116 cells after incubation with varying concentrations E (0, 2.5, 5, 10 μM) for 24 h were assessed by staining with H&E and visualized by microscopy.
# [5] = test system: ERK; assay: Western blot, MAPK signaling pathway: ERK; format: cell-based, human; conditions: HCT116, 10 μM, 24 h
# Text: Extracellular signal-regulated kinases are the most closely related MAPK. MAPK, a family of serine/threonine protein kinases, is also an important transmitter of signaling from the cell surface to the nucleus, and it is involved in the regulation of many physiological processes, including apoptosis ([Bian et al., 2021]). The MAPK pathway has been implicated in regulating tumor angiogenesis, proliferation, metastasis and invasion ([Ko et al., 2017]). MAPK family is mainly composed of ERK, p38 and JNK subfamily.
# FIGURE 9 Effect of compound E on […] in HCT116 cells. Cells were pretreated with the various concentrations of compound E (2.5, 5 and 10 μM) for 24 h. The expression of phospho-ERK, ERK, phospho-JNK, JNK, phospho-p38, p38 were analyzed by Western blot. ***p < 0.001, **p < 0.01, *p < 0.05 vs. control group. The error bars represent the mean ± SD for three independent experiments.
# HCT116 cells were cultured with different concentrations of compound E for 24 h. Then, the floating cells were collected and washed twice with ice-cold PBS. Add cold RIPA buffer. After the cells were lysed on ice for 20 min, the lysate was centrifuged at 12,000 rpm for 15 min at 4°C. The BCA method determines the protein concentration. […] The protein is detected by electrochemiluminescence (Bio-Rad, CA, United State).
structure (smiles),measurement,setting,value
"CC1(C)CC[C@]2(C(=O)OCCn3nnnc3-c3ccccc3)[C@H](O)C[C@]3(C)C(=CC[C@@H]4[C@@]5(C)CC[C@H](O)[C@@](C)(C=O)[C@@H]5CC[C@]43C)[C@@H]2C1 [Compound E, 2-(5-phenyl-1H-tetrazol-1-yl)ethyl (4aR,5R,6aS,6bR,8aR,9S,10S,12aR,12bR,14bS)-9-formyl-5,10-dihydroxy-2,2,6a,6b,9,12a-hexamethyl-1,3,4,5,6,6a,6b,7,8,8a,9,10,11,12,12a,12b,13,14b-octadecahydropicene-4a (2H)-carboxylate]",IC50 values HCT116,[1]; 48 h incubation,strong activity
same,IC50,"[1]; Homo sapiens, HCT-116, 48 h incubation",2.46 ± 0.44 µM
same,IC50 values HepG2,[2]; 48 h incubation,strong activity
same,IC50,"[2]; Homo sapiens, HepG2, 48 h incubation",8.89 ± 2.24 µM
same,%G1,[3],81.2%
same,morphological changes (H&E staining),[4],significant apoptotic morphological changes
same,phosphorylation level of ERK,[5],down-regulated
same,melting point,,196 to 198 °C

# From article PMC9490060, “Synthesis and evaluation of anticancer activity of quillaic acid derivatives: A cell cycle arrest and apoptosis inducer through NF-κB and MAPK pathways” (Frontiers in Chemistry, 2022)
